Results from BindingDB's records for doi:10.7270/Q2CV4GCW (The Scripps Research Institute Molecular Screening Center, 2014).

Target: T1, Group 3 secretory phospholipase A2 (Homo sapiens, UniProt Q9NZ20)
T1 sequence (Q9NZ20 whole entry): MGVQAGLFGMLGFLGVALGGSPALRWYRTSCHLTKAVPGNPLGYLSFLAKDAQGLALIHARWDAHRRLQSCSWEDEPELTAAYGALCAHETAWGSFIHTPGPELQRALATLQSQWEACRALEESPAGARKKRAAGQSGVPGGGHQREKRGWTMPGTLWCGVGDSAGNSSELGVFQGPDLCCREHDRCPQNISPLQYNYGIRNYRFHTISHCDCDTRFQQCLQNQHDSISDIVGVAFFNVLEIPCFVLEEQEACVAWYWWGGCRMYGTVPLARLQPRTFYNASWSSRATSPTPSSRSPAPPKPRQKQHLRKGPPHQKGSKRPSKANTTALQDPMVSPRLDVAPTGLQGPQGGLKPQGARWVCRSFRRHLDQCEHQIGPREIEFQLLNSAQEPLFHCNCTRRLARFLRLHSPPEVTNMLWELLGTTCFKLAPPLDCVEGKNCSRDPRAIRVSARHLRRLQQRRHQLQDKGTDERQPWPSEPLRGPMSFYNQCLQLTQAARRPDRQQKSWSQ
Experiment: human group III sPLA2 inhibitors, dose response, biochemical, QFRET, IC50 (AID 743457)

Row | SMILES | IC50
1 | Cc1noc(/C=C/N(C)C)c1S(=O)(=O)N1CCCC(C(=O)NCc2ccco2)C1 (stereo not drawn) | 122 µM
2 | COCCN1C(=O)/C(=C/c2c(OC)cc(OC)cc2OC)C(=O)N(c2ccccc2)C1=O | 100 µM
3 | NS(=O)(=O)c1ccc(Nc2nc3ccccc3nc2NS(=O)(=O)c2cccc([N+](=O)[O-])c2)cc1 | 42.5 µM
4 | Cc1c(Cl)cccc1N=C(S)NCCc1ccc(S(N)(=O)=O)cc1 | 122 µM
5 | COc1ccc(C=NNC(=O)CSc2n[nH]c(=O)[nH]c2=O)cc1 [2-[[3,5-bis(oxidanylidene)-2H-1,2,4-triazin-6-yl]sulfanyl]-N-[(4-methoxyphenyl)methylideneamino]ethanamide] | 48 µM
6 | COC(=O)CCC(=O)OC1(C)C(=O)C2=CN(CCCOC(C)C)C(c3ccc(OC)cc3)=CC2=C(Br)C1=O (stereo not drawn) [4-O-[5-bromo-3-(4-methoxyphenyl)-7-methyl-6,8-dioxo-2-(3-propan-2-yloxypropyl)isoquinolin-7-yl] 1-O-methyl butanedioate] | 122 µM
7 | Cc1n[nH]c(N=Nc2ccc(O)cc2)n1 [4-[(5-methyl-1H-1,2,4-triazol-3-yl)hydrazinylidene]cyclohexa-2,5-dien-1-one] | 20.5 µM
8 | Cc1ccc(O)c(-c2cc(C(=O)Nc3ccc(S(=O)(=O)Nc4nccc(C)n4)cc3)[nH]n2)c1 [5-(2-Hydroxy-5-methyl-phenyl)-2H-pyrazole-3-carboxylic acid [4-(4-methyl-pyrimidin-2-ylsulfamoyl)-phenyl]-amide] | 122 µM
9 | COc1cc(/C=C(/C#N)c2nc3ccccc3[nH]2)ccc1OCc1ccc(C(=O)O)o1 [5-[[4-[(Z)-2-(1H-benzimidazol-2-yl)-2-cyanoethenyl]-2-methoxyphenoxy]methyl]-2-furancarboxylic acid] | 66.3 µM
10 | CSCc1nc2sc(C(=O)Nc3nc(C)cs3)c(C)c2c(=O)[nH]1 [5-methyl-2-(methylsulfanylmethyl)-N-(4-methyl-1,3-thiazol-2-yl)-4-oxo-3H-thieno[2,3-d]pyrimidine-6-carboxamide] | 122 µM
11 | O=C1c2ccccc2SC1/C=N/c1cc([N+](=O)[O-])ccc1O (stereo not drawn) [(2Z)-2-[[(5-nitro-2-oxidanyl-phenyl)amino]methylidene]-1-benzothiophen-3-one] | 122 µM
12 | CCN(CC)c1nc2c3c(nc4c(c3c1C#N)CC(=O)N4c1ccc(Cl)cc1)NC(C)=N2 [MLS000389664] | 25 µM
13 | CCCCn1c(NS(=O)(=O)c2ccccc2)c(C(=O)OCC)c2nc3ccccc3nc21 [MLS000589117] | 40.6 µM
14 | Cc1ccc(-n2ncc3c(NNC(=O)c4ccco4)ncnc32)cc1C [MLS001235991] | 122 µM
15 | O=C1C([N+](=O)[O-])=CC(Cl)=CC1/C=N/NC(=O)C(O)(c1ccccc1)c1ccccc1 (stereo not drawn) [N''''-[(E)-(3-chloro-5-nitro-6-oxocyclohexa-2,4-dien-1-ylidene)methyl]-2-hydroxy-2,2-diphenylacetohydrazide] | 32.5 µM
16 | C=CCSC(N)=NN=CC1C=C(Br)C=C([N+](=O)[O-])C1=O (stereo not drawn) [N''-[[(E)-(3-bromo-5-nitro-6-oxo-1-cyclohexa-2,4-dienylidene)methyl]amino]carbamimidothioic acid prop-2-enyl ester] | 40.6 µM
17 | Cc1ccc(C(=O)Nc2nc(C(C)(C)C)cs2)s1 [N-(4-tert-butyl-2-thiazolyl)-5-methyl-2-thiophenecarboxamide] | 122 µM
18 | Cc1ccc(C(=O)n2c3ccccc3c3ccccc32)cc1 [carbazol-9-yl-(4-methylphenyl)methanone] | 30.3 µM
